Active and inactive are the calls of the source. The rule behind the calls is not given here.
Columns and labels:
[1] = biological target: Mitogen-activated protein kinase 14 (Homo sapiens, UniProt Q16539); assay: Inhibition of human p38alpha at 1 uM using MBP as substrate by [gamma-33P]-ATP assay relative to control
[2] = biological target: Mitogen-activated protein kinase 8 (Homo sapiens, UniProt P45983); assay: Inhibition of human JNK1 using ATF2 as substrate by [gamma-33P]-ATP assay; settings: dose 1.0 µM
Mitogen-activated protein kinase 8, sequence (P45983 whole entry): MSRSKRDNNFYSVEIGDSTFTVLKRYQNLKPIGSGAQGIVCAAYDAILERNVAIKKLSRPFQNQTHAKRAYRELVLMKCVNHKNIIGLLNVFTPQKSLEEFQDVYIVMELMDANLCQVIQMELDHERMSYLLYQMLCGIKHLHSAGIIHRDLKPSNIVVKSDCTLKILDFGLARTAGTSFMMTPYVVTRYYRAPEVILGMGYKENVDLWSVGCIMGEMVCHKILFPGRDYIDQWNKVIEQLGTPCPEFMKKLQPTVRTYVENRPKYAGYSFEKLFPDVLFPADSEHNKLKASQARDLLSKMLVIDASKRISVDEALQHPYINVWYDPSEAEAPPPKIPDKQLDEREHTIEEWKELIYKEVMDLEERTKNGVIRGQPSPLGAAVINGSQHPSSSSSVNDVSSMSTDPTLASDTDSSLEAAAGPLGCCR

[3] = biological target: Mitogen-activated protein kinase 10 (Rattus norvegicus) (UniProt P49187); assay: Inhibition of JNK3 in rat primary neuron assessed as reduction in phosphorylation of APP at T668 residue at < 1 nM incubated for 30 mins by Western blot analysis; settings: dose nM <1, time 30.0 min
Mitogen-activated protein kinase 10 (Rattus norvegicus), sequence (P49187 whole entry, the tested form may be a part): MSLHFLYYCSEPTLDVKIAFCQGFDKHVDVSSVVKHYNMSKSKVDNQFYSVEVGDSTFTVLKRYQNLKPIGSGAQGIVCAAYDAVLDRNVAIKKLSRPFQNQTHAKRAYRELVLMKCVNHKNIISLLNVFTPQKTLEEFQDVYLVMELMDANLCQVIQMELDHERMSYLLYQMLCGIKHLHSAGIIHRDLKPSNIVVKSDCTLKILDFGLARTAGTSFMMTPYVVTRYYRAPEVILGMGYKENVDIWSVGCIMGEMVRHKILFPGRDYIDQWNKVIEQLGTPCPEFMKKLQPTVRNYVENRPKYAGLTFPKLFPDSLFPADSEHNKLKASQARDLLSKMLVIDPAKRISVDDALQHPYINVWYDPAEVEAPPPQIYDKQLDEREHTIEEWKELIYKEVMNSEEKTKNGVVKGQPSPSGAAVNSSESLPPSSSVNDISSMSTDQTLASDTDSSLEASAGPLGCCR

[4] = biological target: T1, Epithelial discoidin domain-containing receptor 1 (Homo sapiens, UniProt Q08345); assay: Inhibition of human DDR1 at 1 uM using KKSRGDYMTMQIG as substrate by [gamma-33P]-ATP assay relative to control
T1 sequence (Q08345 whole entry, the tested form may be a part): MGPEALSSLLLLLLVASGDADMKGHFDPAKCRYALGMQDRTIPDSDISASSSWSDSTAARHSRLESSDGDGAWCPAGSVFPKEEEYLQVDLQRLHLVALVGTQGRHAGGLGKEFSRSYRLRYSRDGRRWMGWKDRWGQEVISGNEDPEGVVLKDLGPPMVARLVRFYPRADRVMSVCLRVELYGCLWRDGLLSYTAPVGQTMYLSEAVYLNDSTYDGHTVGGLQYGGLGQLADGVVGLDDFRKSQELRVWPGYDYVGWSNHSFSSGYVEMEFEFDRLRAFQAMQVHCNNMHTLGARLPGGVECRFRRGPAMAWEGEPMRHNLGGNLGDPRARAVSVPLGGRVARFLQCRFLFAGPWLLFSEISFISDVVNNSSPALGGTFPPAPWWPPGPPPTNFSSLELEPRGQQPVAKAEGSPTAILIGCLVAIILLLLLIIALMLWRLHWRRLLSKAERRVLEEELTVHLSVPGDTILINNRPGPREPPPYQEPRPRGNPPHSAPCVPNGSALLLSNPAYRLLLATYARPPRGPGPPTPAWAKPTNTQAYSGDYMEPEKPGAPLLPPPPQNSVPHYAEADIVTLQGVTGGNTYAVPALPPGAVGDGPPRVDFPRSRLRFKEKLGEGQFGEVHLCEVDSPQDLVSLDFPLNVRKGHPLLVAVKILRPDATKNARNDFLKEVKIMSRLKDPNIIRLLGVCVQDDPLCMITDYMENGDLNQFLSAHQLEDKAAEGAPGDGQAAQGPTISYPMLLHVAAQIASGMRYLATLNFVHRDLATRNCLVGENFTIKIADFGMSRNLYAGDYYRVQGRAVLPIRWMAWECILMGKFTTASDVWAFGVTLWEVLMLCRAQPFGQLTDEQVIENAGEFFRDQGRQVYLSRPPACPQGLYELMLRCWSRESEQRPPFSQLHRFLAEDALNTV

[5] = biological target: Mitogen-activated protein kinase 10 (Homo sapiens, UniProt P53779); assay: Inhibition of human JNK3 at 1 uM using ATF2 as substrate by [gamma-33P]-ATP assay relative to control
Mitogen-activated protein kinase 10, sequence (P53779 whole entry): as the sequence (P49187 whole entry, the tested form may be a part) above, with H27Q, S32Y, V33I, V34A counted along it

[6] = biological target: T2, Mitogen-activated protein kinase 9 (Homo sapiens, UniProt P45984); assay: Inhibition of JNK2 (unknown origin) using biotinylated FL-ATF-2 as substrate measured after 22 mins by homogeneous time-resolved fluorescence analysis
Target sequence in this assay (P45984 whole entry, the tested form may be a part): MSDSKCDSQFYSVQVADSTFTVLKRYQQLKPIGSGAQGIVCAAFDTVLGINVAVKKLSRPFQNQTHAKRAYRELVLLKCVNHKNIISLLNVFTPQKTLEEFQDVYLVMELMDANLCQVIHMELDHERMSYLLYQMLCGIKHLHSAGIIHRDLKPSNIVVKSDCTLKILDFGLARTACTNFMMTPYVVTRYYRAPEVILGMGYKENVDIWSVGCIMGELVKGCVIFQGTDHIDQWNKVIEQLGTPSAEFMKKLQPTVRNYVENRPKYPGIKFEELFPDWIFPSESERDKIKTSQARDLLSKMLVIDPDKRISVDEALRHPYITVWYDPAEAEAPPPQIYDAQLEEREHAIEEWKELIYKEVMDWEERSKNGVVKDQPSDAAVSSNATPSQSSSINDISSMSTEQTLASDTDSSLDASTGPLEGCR

[7] = biological target: T1, Epithelial discoidin domain-containing receptor 1; assay: Inhibition of human DDR1 using KKSRGDYMTMQIG as substrate by [gamma-33P]-ATP assay
[8] = Drug concentration in C57BL/6J mouse brain at 30 mg/kg, po measured after 2 hrs by LC-MS/MS analysis; type: ADME, organism-based; settings: read-out: Ct
[9] = biological target: Protein-tyrosine kinase 6 (Homo sapiens) (UniProt Q13882); assay: Inhibition of human BRK at 1 uM using poly[Glu:Tyr](4:1) as substrate by [gamma-33P]-ATP assay relative to control
Protein-tyrosine kinase 6 (Homo sapiens), sequence (Q13882 whole entry, looked up): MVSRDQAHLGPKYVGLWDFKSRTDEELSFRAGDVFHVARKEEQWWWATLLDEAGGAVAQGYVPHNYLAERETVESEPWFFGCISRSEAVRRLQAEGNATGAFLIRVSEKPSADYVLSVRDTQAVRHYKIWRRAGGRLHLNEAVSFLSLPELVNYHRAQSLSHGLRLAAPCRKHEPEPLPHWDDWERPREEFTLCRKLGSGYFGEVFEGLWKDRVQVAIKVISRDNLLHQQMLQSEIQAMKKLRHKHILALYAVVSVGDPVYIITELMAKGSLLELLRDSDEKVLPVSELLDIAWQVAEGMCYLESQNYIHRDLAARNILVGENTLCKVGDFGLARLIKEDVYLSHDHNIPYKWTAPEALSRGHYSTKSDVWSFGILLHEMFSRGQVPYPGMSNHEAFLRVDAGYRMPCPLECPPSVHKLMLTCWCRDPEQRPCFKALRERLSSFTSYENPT

[10] = biological target: T2, Mitogen-activated protein kinase 9; assay: Inhibition of human JNK2 at 1 uM using ATF2 as substrate by [gamma-33P]-ATP assay relative to control
Target sequence in this assay (P45984 whole entry, looked up, the tested form may be a part): as the sequence (P45984 whole entry, the tested form may be a part) above

[11] = biological target: T3, Casein kinase I isoform epsilon (Homo sapiens, UniProt P49674); assay: Inhibition of human CK1E at 1 uM using KRRRAL[pS]VASLPGL as substrate by [gamma-33P]-ATP assay relative to control
Target sequence in this assay (P49674 whole entry, looked up, canonical isoform): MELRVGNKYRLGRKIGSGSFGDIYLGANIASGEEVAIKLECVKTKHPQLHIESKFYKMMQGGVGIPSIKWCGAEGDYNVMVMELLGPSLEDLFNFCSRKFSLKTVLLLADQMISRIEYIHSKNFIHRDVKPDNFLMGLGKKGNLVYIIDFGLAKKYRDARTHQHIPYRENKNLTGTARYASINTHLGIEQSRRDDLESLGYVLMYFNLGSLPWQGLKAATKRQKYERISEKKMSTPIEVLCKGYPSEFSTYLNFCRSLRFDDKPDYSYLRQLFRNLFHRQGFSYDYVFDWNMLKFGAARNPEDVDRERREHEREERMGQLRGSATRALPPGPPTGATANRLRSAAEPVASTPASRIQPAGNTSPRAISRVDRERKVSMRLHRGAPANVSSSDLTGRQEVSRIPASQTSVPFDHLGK

SH-SY5Y = assay: Cytotoxicity against human SH-SY5Y cells assessed as reduction in cell viability at 10 uM measured after 48 hrs by MTT assay; type: cell-based
[12] = Stability in human liver microsome assessed as half life; type: ADME; settings: liver microsomes
[13] = biological target: T3, Casein kinase I isoform epsilon; assay: Inhibition of human CK1E using KRRRAL[pS]VASLPGL as substrate by [gamma-33P]-ATP assay
Target sequence in this assay (P49674 whole entry, canonical isoform): as the sequence (P49674 whole entry, looked up, canonical isoform) above

[14] = Stability in mouse liver microsome assessed as half life; type: ADME; settings: liver microsomes
[15] = Drug concentration in C57BL/6J mouse plasma at 30 mg/kg, po measured after 2 hrs by LC-MS/MS analysis; type: ADME, organism-based

Mitogen-activated protein kinase 14, sequence (Q16539 whole entry): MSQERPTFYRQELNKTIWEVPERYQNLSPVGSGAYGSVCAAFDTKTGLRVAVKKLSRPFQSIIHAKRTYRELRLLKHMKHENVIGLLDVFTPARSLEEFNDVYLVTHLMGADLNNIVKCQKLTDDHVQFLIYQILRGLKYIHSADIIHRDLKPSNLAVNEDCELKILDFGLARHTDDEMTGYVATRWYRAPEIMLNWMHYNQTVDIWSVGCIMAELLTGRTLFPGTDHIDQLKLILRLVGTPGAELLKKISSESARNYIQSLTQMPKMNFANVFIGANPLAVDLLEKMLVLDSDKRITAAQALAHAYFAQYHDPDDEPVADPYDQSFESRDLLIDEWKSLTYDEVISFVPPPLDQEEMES

inhibition [1]: 75% | inhibition [2]: 30% | inhibition [3]: Active | inhibition [4]: 73% | inhibition [5]: 89% | IC50 [6]: 74 nM | IC50 [7]: 247 nM | concentration at 2 h [8]: 3.3 µM | inhibition [9]: 55% | inhibition [10]: 81% | inhibition [11]: 78% | half-life [12]: 1.53 h | IC50 [13]: 100 nM | half-life [14]: 1.28 h | concentration at 2 h [15]: 5.9 µM
SMILES: Cc1nc2c(cnn2-c2csc(C(=O)NC3COC3)c2)cc1Nc1c(F)cccc1Cl
Cell viability (SH-SY5Y): 116%

From ChEMBL document CHEMBL4837263, “N-Aromatic-Substituted Indazole Derivatives as Brain-Penetrant and Orally Bioavailable JNK3 Inhibitors” (ACS Med Chem Lett, 2021)
